Results on eleven compounds are retold here after patent US7786112B2, “Inhibitors of cyclin-dependent kinases, compositions and uses related thereto” (Agennix USA Inc., priority 2003, dated 2010).

One assay relates to HCT-116. Nature of the assay: Calcein AM viability assay, HCT-116. The format is cell-based. As to conditions: Homo sapiens, HCT-116, non-protein adjusted, Table 6. The method, then: The potency of Cdk inhibitors, as measured by loss of cellular viability, was determined with the Calcein AM assay (Molecular Probes). Calcein AM is a substrate of intracellular esterases, which is cleaved only in viable cells to generate a fluorescent product that can be quantified with a fluorescent plate reader. The fluorescent signal is proportional to the number of viable cells, and thus loss of signal in response to the exposure of cells to Cdk inhibitors correlates with a loss of viability. This assay can distinguish cell cycle arrest, in which cells may still by viable, from loss of viability and is thus well suited for the evaluation of Cdk inhibitors. A compound that is a potent cytotoxic, may cause significant loss of cell viability in such assay.
Cellular IC50's were determined in the human colorectal carcinoma cell line, HCT-116, and the normal human fibroblast, IMR90. Protein adjusted IC50's were also determined in HCT-116.
HCT-116 or IMR90 cells were recovered from sub-confluent plates by trypsinization and 1,000 or 4,000 cells, respectively, were plated in 24-well dishes and incubated overnight at 37° C., 5% CO2. HCT-116 cells were cultured in RPMI-1640, 10% FCS, and IMR90 cells were cultured in Minimum Essential Medium-alpha, 10% FCS. After overnight incubation to allow adherence, the media was aspirated from each well and replaced with media containing a test compound at a concentration from 0 to 250 nM, spanning a total of 7 doses. The plates were returned to the incubator and cultured for an additional 72 hours (3 days). […] After 72-hours incubation with the test compound, the cells were washed twice with 1×PBS, taking special care to remove all residual buffer.
A 5 μM Calcein AM solution was prepared by dissolving a 50 μg aliquot of Calcein (Molecular Probes catalog # C3100) in 50 μl DMSO. After the Calcein had completely dissolved (10 minutes at room temperature), it was diluted into 10 ml PBS. Calcein/PBS (0.5 ml) was added to each well. The plates were incubated for 75 minutes at 37° C. (protected from light) and the fluorescent signal was read on a fluorescent plate reader (excitation 485/20 and emission 530/25).

Assay [1] deals with protein kinase C (mixed isozymes from rat brain). The experiment in a line: Protein kinase C assay (Histone H1, TCA precipitation). The format is biochemical. The settings on record: Table 5; read-out: PKC IC50. As for the experimental part:
(§1) Enzymes: Cdc2/cyclin B was obtained from commercial sources. Cdk2/his-cyclin Eshort was expressed in Sf9 cells. Cdk2/cyclin A, cdk4/cyclin D1, and cdk6/cyclin D2 were expressed in Sf9 cells. Protein kinase A (catalytic subunit, from bovine heart) and protein kinase C (mixed isozymes from rat brain) were obtained from commercial sources.
Protein kinase C and protein kinase A were assayed using a TCA precipitation assay with Histone H1 as a substrate. For protein kinase A, the final assay contained 50 mM Tris, 10 mM MgCl2, 1 mM dithiothreitol, pH 7.5, 12 μM adenosine triphosphate, 10% (v/v) dimethylsulfoxide (from compounds), 20 μg Histone H1, 2 μCi [γ-^32P] adenosine triphosphate, 0.2 U protein kinase A in a 100 μL assay. A protein kinase C assay contained 50 mM Tris, 10 mM MgCl2, 1 mM dithiothreitol, 0.8 mM CaCl2, pH 7.5, 5 μM adenosine triphosphate, 10% (v/v) dimethylsulfoxide (from compounds), 20 μg Histone H1, 2 μCi [γ-^32P] adenosine triphosphate, 0.01 U protein kinase C in a 50 μL assay. The assays were started by the addition of enzyme, allowed to react for 10 min at 30° C., and stopped by adding 0.4 volumes of 237 mM disodium ethylenediamine tetraacetate, 105 mM adenosine triphosphate, pH 8.0. […] The filters were washed ten times with 25% (w/v) trichloroacetic acid, and the amount of incorporated [^32P]phosphate was determined by adding 100 μl Microscint and scintillation counting.

A further assay deals with T1, Cdc2/cyclin B (Homo sapiens, UniProt P06493).
T1 construct: purchased
The experiment in a line: Cdc2/cyclin B kinase assay (Histone H1, TCA precipitation). The format is biochemical. As to conditions: Table 6.
Excerpt: as §1
(§2) Substrates: Histone H1 was from commercial sources. GST-Rb is glutathione-S-transferase fused to the N-terminal of residues 379-928 of the Rb protein.
Assays: Cdc2/cyclinB activity was determined by measuring incorporation of radio-activity from adenosine [γ-^32P]triphosphate into Histone H1 using a TCA precipitation assay. Cdc2/cyclin B kinase and Histone H1 were obtained from commercial sources. […] The filter was washed ten times with 25% (w/v) trichloroacetic acid, and the amount of incorporated ^32P was determined by scintillation counting after adding 100 μL scintillant (Microscint 20, Packard Instruments). Relative activity was determined by dividing the amount of radioactivity incorporated in the presence of compound by the amount of radioactivity incorporated in a control experiment containing DMSO alone but no compound. The background radioactivity, determined in an experiment containing 50 mM EDTA in place of compound, was subtracted from all results before calculations. […]

The target of a further assay is T2, Cdk4/cyclin D1 (Homo sapiens, UniProt P11802).
T2 construct: made in house; host or cells: Sf9 insect cells
The experiment in a line: Cdk4/cyclin D1 kinase assay (GST-Rb, glutathione-sepharose capture). Format: biochemical. The settings on record: Table 6.
Excerpt: as §1, §2
Cdk2/cyclin E, Cdk2/cyclin A, Cdk4/cyclin D1, and Cdk6/cyclin D2 activity was determined using a glutathione-sepharose capture assay. […] After washing the retained beads five time with phosphate-buffered saline containing 0.3% (w/v) Tween-20, the amount of ^33P incorporated was determined by scintillation counting after adding 100 μL scintillant. Relative activity was determined by dividing the amount of radioactivity incorporated in the presence of compound by the amount of radioactivity incorporated in a control experiment containing DMSO alone but no compound. The background radioactivity, determined in an experiment containing 50 mM disodium ethylenediamine tetraacetate in place of compound, was subtracted from all results before calculations.

In assay [2] the test system is HCT-116 cells. The experiment in a line: Clonogenic survival assay. Format: cell-based, human. As to conditions: HCT-116 clonogenic time-course, at 100 nM. The method, then: This assay was used to determine the concentration of a compound that results irreversible loss of viability after a specified period of exposure. Essentially, cells are exposed to compound for a period of 1, 2 or 5 days, and are then transferred to compound-free growth medium. After continued incubation in the compound-free medium for a number of days, the number of colonies recovered is counted as an estimate of the number of surviving cells.
Media (RPMI-1640, 10% FCS, pen/strep) was pre-warmed to 37° C. in a water bath. Cells were incubated and grown at 37° C., 5% CO2. Cells were recovered by trypsinization from sub-confluent plates and counted using a hemocytometer. 1×10^4 cells were plated in 25 mls of media in a 15 cm tissue culture dish. 14 plates were set up for each test compound, and were incubated overnight at 37° C. The compound was diluted into media at 7 concentrations and the media on the cells was replaced with that containing the test compound. Two plates were set up for each concentration of the compound to be tested, as well as two control plates without compound. […] Colonies were stained with crystal violet solution (0.4% crystal violet, 20% ethanol) for 5 minutes, washed twice with distilled water, and counted.

Assay [3] deals with HCT-116 cells. Nature of the assay: Cell cycle analysis with propidium iodide (FACS). As to conditions: HCT-116, PI FACS. The format is cell-based, human. The method, then: The percentage of cells in the G1, S and G2/M phases of the cell cycle was determined by staining DNA with propidium iodide and quantifying the number of cells with a 2N or 4N DNA complement by flow cytometry. Alterations in the distribution of cells across the cell cycle in response to exposure to the Cdk inhibitors was evaluated in this manner.
3 sets of HCT-116 cells (100,000 cells/set) were cultured in the presence of a test compound in T-25 flasks according to Table 1 below. Analysis was performed at 24, 48 and 72 hours. Adherent cells were collected by trypsinization, combined with floating cells in Falcon 12×75 flow cytometric tubes, and harvested by centrifugation. The media was decanted from the cell pellet, 100 μl of PI stain was added and the cells were incubated at 37° C. for 20-25 minutes. The cell count was preferably no greater than 2×10^6-4×10^6/ml. An equal volume (100 μl) of PI salt was then added to the cells, which were then incubated at 4° C. for 1-2 hours. The stained cells were analyzed on a Becton Dickinson FACScan flow cytometer. Samples were protected from light.

T2 sequence (P11802 whole entry, species assumed): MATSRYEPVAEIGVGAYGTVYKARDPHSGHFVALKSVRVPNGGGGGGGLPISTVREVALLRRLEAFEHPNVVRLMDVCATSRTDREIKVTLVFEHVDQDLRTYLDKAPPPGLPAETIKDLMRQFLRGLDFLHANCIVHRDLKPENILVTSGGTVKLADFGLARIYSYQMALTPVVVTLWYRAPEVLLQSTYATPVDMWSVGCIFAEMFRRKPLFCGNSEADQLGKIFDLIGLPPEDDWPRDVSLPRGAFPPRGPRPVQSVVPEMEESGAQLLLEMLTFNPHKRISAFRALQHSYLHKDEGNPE
T2 sequence (P24385 whole entry partner, species assumed): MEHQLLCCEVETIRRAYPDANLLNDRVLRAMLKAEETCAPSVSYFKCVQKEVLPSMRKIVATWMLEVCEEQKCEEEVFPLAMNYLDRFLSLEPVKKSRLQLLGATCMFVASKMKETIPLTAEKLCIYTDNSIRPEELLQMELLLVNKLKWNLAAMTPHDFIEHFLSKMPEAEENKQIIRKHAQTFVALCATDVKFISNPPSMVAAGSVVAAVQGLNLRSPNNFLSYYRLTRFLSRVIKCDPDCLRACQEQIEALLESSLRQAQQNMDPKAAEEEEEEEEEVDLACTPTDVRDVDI
T1 sequence (P06493 whole entry, species assumed): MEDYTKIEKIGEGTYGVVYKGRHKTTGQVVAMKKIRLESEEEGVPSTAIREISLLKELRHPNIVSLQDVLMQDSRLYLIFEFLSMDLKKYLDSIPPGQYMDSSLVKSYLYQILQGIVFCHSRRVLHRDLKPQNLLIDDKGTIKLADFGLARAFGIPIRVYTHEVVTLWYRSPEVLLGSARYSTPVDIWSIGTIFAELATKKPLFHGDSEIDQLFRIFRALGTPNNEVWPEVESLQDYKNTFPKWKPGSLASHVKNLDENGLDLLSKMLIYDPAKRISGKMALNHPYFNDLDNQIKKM
T1 sequence (P14635 whole entry partner, species assumed): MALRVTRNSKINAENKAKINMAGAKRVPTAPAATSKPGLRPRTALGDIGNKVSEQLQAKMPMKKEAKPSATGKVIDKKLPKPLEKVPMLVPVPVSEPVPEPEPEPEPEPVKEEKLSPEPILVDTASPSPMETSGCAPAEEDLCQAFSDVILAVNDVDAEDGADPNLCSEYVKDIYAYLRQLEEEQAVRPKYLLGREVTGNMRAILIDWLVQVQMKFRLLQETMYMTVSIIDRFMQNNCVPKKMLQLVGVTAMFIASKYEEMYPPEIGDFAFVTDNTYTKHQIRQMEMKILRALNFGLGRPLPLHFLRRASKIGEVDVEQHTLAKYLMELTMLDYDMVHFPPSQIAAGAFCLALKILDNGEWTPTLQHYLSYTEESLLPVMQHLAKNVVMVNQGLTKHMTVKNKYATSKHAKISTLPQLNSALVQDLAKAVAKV

A word on the IC50: it is the concentration that inhibits the measured activity by half. Take `CC(C)c1nn(-c2c(Cl)cc(Cl)cc2Cl)c2nc(Cc3ccc(NS(=O)(=O)CCCN4CCN(C(C)C)CC4)cc3)[nH]c(=O)c12` [Compound A39]: the half-inhibitory concentration (IC50) in the assay with HCT-116 is < 100 nM.
The same measure, in the same setting: with `CC(C)c1nn(-c2c(Cl)cc(Cl)cc2Cl)c2nc(Cc3ccc(OCCO)cc3)[nH]c(=O)c12` [Compound A61] the figure was < 100 nM.
On to `CC(C)N1CCN(CCOc2ccc(-c3[nH]nc4c3C(=O)c3c(NC(=O)NN5CCOCC5)cccc3-4)cc2)CC1` [E], for which, in assay [1], the IC50 was < 10000 nM.
For the compound `CC(C)c1nn(-c2c(Cl)cccc2Cl)c2nc(Cc3ccc(OCCOC(=O)[C@@H](N)C(C)C)cc3)[nH]c(=O)c12` [Compound A60], the 50% inhibitory concentration (IC50) at Cdc2/cyclin B is < 1000 nM; against Cdk4/cyclin D1 it was < 10000 nM.
In the case of `COCCN1CCN(Cc2ccc(-c3[nH]nc4c3C(=O)c3c(NC(=O)NN5CCOCC5)cccc3-4)cc2)CC1.Cl.Cl` [Compound B16, N-[3-(4-{[4-(2-methoxyethyl)piperazinyl]methyl}phenyl)-4-oxoindeno[2,3-d]pyrazol-5-yl](morpholin-4-ylamino)carboxamide dihydrochloride], the “Time within which IC50 is reached” value with HCT-116 cells [2] was 30 to 60 min. For the same compound, in the assay with HCT-116 cells [3], the “Effect on cell cycle distribution” value is recorded as “Analogous results”.
In the case of `CC(C)c1nn(-c2c(Cl)cccc2Cl)c2nc(Cc3ccc(OCCO)cc3)[nH]c(=O)c12` [Compound A59], the half-maximal inhibitory concentration (IC50) in the assay on HCT-116 was < 100 nM.
In the case of `CC(C)N1CCN(C(=O)COc2ccc(-c3[nH]nc4c3C(=O)c3c(NC(=O)NN5CCOCC5)cccc3-4)cc2)CC1.Cl` [Compound A37], the “Effect on cell cycle distribution” value in the assay with HCT-116 cells [3] is “terminally arrested in G1 and G2, with evidence of apoptosis and endo-reduplication”.
Regarding `CC(C)c1nn(-c2c(Cl)cc(Cl)cc2Cl)c2nc(Cc3ccc(NS(=O)(=O)CCCN4CCCC4)cc3)[nH]c(=O)c12` [Compound A38], in the assay on HCT-116, the half-inhibitory concentration (IC50) is < 100 nM.
On the same count and under the same terms, with `COc1ccc(Cc2nc3c(c(C(C)C)nn3-c3c(Cl)cccc3Cl)c(=O)[nH]2)cc1` [Compound A67] the figure was < 100 nM.
Still for that read-out and setting: the figure for `Cc1nc(Cc2nc3c(c(C(C)C)nn3-c3c(Cl)cccc3Cl)c(=O)[nH]2)cs1` [Compound A58] is < 100 nM.
Regarding `CC(C)c1nn(-c2c(Cl)cccc2Cl)c2nc(Cc3ccc(O)c(CN4CCN(C(C)C)CC4)c3)[nH]c(=O)c12` [Compound C], the IC50 in assay [1] was > 10000 nM.
